The text below walks through data of the NIST ThermoML archive (doi:10.1021/acs.jced.9b00286).

Structures are written as SMILES. Numbers after ± are expanded uncertainties.

For this data set the following is noted: Crystal; DSC.

`OCc1ccc(O[C@@H]2O[C@H](CO)[C@@H](O)[C@H](O)[C@H]2O)cc1` [gastrodin]: the Triple point temperature turned out to be 429.75 ± 1.2 K.
